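Method: 48-hour compound exposure of cells in 96-well plates, five concentrations, linear interpolation of endpoints. At the GI50, growth is halved.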 The source made the active and inactive calls. Cut-off read from the data, not from the text of the source: active = GI50 up to about 1.1 µM and inactive = higher.
How the values were obtained:
Assay in all cases: NCI anticancer screen, dose series, 48 h
[1] = tested on: 786-0
[2] = tested on: A498
[3] = tested on: HCT-15
[4] = tested on: HT-29
[5] = tested on: K562
[6] = tested on: LOX IMVI
[7] = tested on: Malme-3M
[8] = tested on: OVCAR-3
[9] = tested on: OVCAR-4
[10] = tested on: RPMI-8226
[11] = tested on: SF-268
[12] = tested on: SF-295
[13] = tested on: SF-539
[14] = tested on: SK-MEL-28
[15] = tested on: SNB-78
[16] = tested on: UACC-257
[17] = tested on: UO-31
[18] = tested on: HCC 2998
[19] = tested on: HOP-62
[20] = tested on: SR

Row | Compound | GI50 [1] | GI50 [2] | GI50 [3] | GI50 [4] | GI50 [5] | GI50 [6] | GI50 [7] | GI50 [8] | GI50 [9] | GI50 [10] | GI50 [11] | GI50 [12] | GI50 [13] | GI50 [14] | GI50 [15] | GI50 [16] | GI50 [17] | GI50 [18] | GI50 [19] | GI50 [20]
1 | CC(=O)OCCC(O[Si](c1ccccc1)(c1ccccc1)C(C)(C)C)C(C)(C)O (configuration not stated) | 27.4 µM (inactive) | > 100 µM (inactive) | 31.1 µM | 27.4 µM (inactive) | 31.6 µM (inactive) | 24 µM (inactive) | > 100 µM (inactive) | 21 µM (inactive) | 64.1 µM (inactive) | 23.9 µM (inactive) | 38.5 µM (inactive) | 21.6 µM (inactive) | 25.4 µM (inactive) | 51.2 µM (inactive) | 59.4 µM (inactive) | 26.5 µM (inactive) | 22.1 µM (inactive) |  |  | 
2 | O=C(CC1(O)C(=O)Nc2ccccc21)c1ccc(Cl)cc1Cl (configuration not stated) | > 100 µM (inactive) | > 100 µM (inactive) | > 100 µM | > 100 µM (inactive) | > 100 µM (inactive) | > 100 µM (inactive) | > 100 µM (inactive) | > 100 µM (inactive) | > 100 µM (inactive) | > 100 µM (inactive) | > 100 µM (inactive) | > 100 µM (inactive) | > 100 µM (inactive) | > 100 µM (inactive) | > 100 µM (inactive) | > 100 µM (inactive) | > 100 µM (inactive) |  |  | 
3 | C=C1CN2CC(=C)CN(C1)CS(=O)(=O)N1CC(=C)CN(CC(=C)C1)S(=O)(=O)N1CC(=C)CN(CC(=C)C1)S(=O)(=O)C2 | 18.7 µM (inactive) | 46.5 µM (inactive) | > 100 µM | > 100 µM (inactive) | 56.5 µM (inactive) | > 100 µM (inactive) | 23.3 µM (inactive) | > 100 µM (inactive) | 34.3 µM (inactive) | 39.4 µM (inactive) | 25.6 µM (inactive) | 31.9 µM (inactive) | 15.6 µM (inactive) | 20.3 µM (inactive) |  | 23.6 µM (inactive) | 42 µM (inactive) | 17.7 µM (inactive) | 20.6 µM (inactive) | > 100 µM (inactive)
4 | C=CC1(CC[C@]2(c3ccc(OC)c(OC)c3)C=[N+]([O-])O[C@H](O[C@@H]3CCCC[C@H]3C(C)(C)c3ccccc3)C2)OCC(C)(C)CO1 | 11.9 µM (inactive) | > 45 µM (inactive) | 8.2 µM | 9.79 µM (inactive) | 8.17 µM (inactive) | 10.5 µM (inactive) | 7.26 µM (inactive) | 6.59 µM (inactive) | 11.3 µM (inactive) | 2.34 µM (inactive) | 7.13 µM (inactive) | 22.1 µM (inactive) | 14.8 µM (inactive) | 19.9 µM (inactive) |  | 18.8 µM (inactive) | 11.5 µM (inactive) | 16.1 µM (inactive) | 14.7 µM (inactive) | > 19.9 µM (inactive)
5 | CCOC(=O)c1cc(-n2nnc3ccccc32)cn1C | > 10 µM (inactive) | > 10 µM (inactive) | > 10 µM | > 10 µM (inactive) | > 10 µM (inactive) | > 10 µM (inactive) | > 10 µM (inactive) | > 10 µM (inactive) | > 10 µM (inactive) | > 10 µM (inactive) | > 10 µM (inactive) | > 10 µM (inactive) | > 10 µM (inactive) | > 10 µM (inactive) |  | > 10 µM (inactive) | > 10 µM (inactive) | > 10 µM (inactive) | > 10 µM (inactive) | 1.32 µM (inactive)
6 | C[C@@H](NC1CCCC[C@@H]1O)c1ccccc1 (some centres not stated) | > 100 µM (inactive) |  | > 100 µM | > 100 µM (inactive) | > 100 µM (inactive) | > 100 µM (inactive) | > 100 µM (inactive) | > 100 µM (inactive) | > 100 µM (inactive) | > 100 µM (inactive) |  | > 100 µM (inactive) |  | > 100 µM (inactive) | > 100 µM (inactive) | > 100 µM (inactive) | > 100 µM (inactive) | > 100 µM (inactive) | > 100 µM (inactive) | 
7 | CC/C=C/c1cc2cc[nH]c2c2c1C(C)C[C@@H]2C (some centres not stated) | 18.9 µM (inactive) | 16.3 µM (inactive) | 22.5 µM | 28.6 µM (inactive) | 25.1 µM (inactive) | 17.1 µM (inactive) | > 100 µM (inactive) | 18.9 µM (inactive) |  | 21.6 µM (inactive) |  | 24.4 µM (inactive) | 21.8 µM (inactive) | 22.8 µM (inactive) | 24.9 µM (inactive) | 32.8 µM (inactive) | 24.9 µM (inactive) | > 10 µM (inactive) |  | 
8 | Cc1ccc2c(c1)NC(=O)CC(c1ccccc1)=N2 | > 100 µM (inactive) | > 100 µM (inactive) | 61.4 µM | > 100 µM (inactive) | 5.18 µM (inactive) | > 100 µM (inactive) | > 100 µM (inactive) | > 100 µM (inactive) | > 100 µM (inactive) | 17.4 µM (inactive) | > 100 µM (inactive) | > 100 µM (inactive) | > 100 µM (inactive) | > 100 µM (inactive) |  | > 100 µM (inactive) | 63.1 µM (inactive) | > 100 µM (inactive) | > 100 µM (inactive) | 23.7 µM (inactive)
